Data as given in ChEMBL document CHEMBL1150977, “A quantitative analysis of kinase inhibitor selectivity” (Nat Biotechnol, 2008).

Tests used:
[1] = biological target: Tyrosine-protein kinase ABL1 (Homo sapiens, UniProt P00519, Y253F)
[2] = biological target: T1, cGMP-dependent protein kinase 1 (Homo sapiens, UniProt Q13976)
T1 sequence (Q13976 whole entry): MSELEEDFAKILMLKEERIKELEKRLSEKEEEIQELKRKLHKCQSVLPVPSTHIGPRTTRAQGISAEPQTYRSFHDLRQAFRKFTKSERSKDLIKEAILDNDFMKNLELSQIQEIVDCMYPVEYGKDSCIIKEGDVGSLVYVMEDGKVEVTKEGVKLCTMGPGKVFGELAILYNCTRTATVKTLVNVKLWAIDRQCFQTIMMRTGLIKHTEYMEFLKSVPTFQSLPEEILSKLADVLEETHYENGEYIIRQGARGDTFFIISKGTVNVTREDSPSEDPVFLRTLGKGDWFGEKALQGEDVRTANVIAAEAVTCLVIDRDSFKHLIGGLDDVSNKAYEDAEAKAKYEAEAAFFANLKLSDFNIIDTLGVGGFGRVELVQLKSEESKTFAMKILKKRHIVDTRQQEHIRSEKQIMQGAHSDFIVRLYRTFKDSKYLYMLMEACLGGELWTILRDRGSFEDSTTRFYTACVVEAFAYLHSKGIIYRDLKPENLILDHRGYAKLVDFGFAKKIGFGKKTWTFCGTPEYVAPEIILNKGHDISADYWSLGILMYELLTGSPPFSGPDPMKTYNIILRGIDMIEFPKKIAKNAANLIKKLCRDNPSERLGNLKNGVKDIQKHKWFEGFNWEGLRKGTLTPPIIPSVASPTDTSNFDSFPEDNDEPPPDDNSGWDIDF

[3] = biological target: Serine/threonine-protein kinase pim-1 (Homo sapiens, UniProt P11309)
[4] = biological target: T2, Serine/threonine-protein kinase 36 (Homo sapiens, UniProt Q9NRP7)
T2 sequence (Q9NRP7 whole entry): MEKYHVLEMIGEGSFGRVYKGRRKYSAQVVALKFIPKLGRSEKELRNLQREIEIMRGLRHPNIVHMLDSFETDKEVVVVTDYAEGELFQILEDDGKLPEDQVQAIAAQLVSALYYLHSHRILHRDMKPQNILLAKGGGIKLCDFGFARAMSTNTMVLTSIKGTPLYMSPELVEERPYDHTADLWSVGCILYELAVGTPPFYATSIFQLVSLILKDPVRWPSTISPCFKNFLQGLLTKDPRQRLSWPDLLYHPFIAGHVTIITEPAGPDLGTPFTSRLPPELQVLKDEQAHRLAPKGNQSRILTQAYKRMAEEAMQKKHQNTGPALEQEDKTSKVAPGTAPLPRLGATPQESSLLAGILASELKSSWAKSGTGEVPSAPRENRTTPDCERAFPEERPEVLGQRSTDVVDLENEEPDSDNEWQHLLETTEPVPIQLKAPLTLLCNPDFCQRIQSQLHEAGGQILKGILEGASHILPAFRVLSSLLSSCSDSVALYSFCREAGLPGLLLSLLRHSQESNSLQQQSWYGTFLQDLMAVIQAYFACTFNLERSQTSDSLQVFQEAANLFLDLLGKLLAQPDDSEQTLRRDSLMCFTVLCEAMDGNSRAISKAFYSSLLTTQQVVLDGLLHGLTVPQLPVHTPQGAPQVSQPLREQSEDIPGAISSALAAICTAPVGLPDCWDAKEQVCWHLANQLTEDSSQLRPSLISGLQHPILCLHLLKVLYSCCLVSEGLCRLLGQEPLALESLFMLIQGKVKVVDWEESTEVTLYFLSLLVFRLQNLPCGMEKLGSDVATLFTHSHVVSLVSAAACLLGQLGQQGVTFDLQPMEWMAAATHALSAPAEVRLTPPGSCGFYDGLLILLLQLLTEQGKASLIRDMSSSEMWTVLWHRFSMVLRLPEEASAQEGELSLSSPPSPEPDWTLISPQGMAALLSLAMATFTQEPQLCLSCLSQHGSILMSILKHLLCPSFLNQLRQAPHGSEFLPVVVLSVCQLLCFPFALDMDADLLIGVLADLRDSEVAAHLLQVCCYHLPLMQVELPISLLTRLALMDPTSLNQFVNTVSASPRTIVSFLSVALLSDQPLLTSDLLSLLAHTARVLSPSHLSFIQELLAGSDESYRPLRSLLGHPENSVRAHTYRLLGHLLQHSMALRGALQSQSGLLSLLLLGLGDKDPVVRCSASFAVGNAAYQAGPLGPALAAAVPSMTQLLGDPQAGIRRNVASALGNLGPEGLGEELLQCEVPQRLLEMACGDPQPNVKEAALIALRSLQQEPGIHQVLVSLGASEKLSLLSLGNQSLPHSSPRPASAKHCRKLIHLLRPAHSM

[5] = biological target: T3, Serine/threonine-protein kinase TNNI3K (Homo sapiens, UniProt Q59H18)
T3 sequence (Q59H18 whole entry): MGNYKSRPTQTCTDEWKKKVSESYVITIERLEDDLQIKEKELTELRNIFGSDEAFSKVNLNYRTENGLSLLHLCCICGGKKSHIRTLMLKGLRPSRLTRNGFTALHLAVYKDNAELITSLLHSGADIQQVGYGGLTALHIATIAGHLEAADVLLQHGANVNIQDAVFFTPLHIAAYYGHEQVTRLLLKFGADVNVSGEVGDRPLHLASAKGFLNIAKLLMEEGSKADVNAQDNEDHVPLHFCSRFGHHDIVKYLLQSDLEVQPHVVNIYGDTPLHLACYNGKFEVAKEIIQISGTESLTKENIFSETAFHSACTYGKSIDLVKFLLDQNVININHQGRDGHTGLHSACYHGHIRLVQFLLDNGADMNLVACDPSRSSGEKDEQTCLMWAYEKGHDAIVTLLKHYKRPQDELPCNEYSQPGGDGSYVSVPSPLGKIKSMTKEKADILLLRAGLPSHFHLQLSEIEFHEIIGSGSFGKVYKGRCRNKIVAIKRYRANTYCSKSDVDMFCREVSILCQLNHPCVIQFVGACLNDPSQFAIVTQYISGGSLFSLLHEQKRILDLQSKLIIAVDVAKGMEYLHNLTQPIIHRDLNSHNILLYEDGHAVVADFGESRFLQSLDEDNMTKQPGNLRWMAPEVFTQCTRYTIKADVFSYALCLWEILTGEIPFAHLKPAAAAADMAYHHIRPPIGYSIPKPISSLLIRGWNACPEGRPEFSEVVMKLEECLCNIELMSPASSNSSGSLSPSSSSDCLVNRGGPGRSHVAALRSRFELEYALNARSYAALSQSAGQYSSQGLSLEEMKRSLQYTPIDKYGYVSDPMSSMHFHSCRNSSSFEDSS

[6] = biological target: Myosin-IIIa (Homo sapiens, UniProt Q8NEV4)
[7] = biological target: Serine/threonine-protein kinase SIK2 (Homo sapiens, UniProt Q9H0K1)

Measured: Kd

Serine/threonine-protein kinase SIK2, sequence (Q9H0K1 whole entry): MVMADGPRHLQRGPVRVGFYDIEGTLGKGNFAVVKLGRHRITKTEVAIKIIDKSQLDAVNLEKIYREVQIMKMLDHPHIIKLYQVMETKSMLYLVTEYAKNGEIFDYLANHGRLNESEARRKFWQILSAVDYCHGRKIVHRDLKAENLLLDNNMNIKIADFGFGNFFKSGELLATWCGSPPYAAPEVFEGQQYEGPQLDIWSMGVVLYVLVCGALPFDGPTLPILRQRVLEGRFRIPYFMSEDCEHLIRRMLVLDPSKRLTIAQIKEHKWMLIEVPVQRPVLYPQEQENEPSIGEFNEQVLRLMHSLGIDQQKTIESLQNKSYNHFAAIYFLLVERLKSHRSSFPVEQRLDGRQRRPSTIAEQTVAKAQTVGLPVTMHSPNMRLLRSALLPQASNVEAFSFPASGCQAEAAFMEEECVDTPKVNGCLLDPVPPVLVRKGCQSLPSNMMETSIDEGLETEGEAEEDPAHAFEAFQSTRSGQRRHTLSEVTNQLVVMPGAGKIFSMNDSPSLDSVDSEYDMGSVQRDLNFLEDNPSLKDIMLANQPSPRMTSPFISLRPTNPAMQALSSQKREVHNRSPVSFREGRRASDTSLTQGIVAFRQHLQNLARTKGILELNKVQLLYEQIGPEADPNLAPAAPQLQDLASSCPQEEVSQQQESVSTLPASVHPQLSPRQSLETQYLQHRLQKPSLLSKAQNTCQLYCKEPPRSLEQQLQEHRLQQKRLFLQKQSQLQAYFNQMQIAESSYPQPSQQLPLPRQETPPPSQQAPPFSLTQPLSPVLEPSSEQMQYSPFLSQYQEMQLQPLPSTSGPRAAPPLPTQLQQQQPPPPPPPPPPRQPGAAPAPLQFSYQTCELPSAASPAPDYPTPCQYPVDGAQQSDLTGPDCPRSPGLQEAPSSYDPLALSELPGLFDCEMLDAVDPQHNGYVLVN
Serine/threonine-protein kinase pim-1, sequence (P11309 whole entry): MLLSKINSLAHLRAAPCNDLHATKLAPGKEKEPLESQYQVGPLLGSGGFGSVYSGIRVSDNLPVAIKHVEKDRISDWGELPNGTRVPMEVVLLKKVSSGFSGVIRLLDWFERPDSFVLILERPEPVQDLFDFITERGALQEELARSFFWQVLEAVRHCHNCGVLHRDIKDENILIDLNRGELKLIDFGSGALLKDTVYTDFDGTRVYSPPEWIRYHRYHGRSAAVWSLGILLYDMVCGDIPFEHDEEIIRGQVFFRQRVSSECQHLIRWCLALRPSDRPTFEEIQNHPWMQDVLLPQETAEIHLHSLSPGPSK
Myosin-IIIa, sequence (Q8NEV4 whole entry): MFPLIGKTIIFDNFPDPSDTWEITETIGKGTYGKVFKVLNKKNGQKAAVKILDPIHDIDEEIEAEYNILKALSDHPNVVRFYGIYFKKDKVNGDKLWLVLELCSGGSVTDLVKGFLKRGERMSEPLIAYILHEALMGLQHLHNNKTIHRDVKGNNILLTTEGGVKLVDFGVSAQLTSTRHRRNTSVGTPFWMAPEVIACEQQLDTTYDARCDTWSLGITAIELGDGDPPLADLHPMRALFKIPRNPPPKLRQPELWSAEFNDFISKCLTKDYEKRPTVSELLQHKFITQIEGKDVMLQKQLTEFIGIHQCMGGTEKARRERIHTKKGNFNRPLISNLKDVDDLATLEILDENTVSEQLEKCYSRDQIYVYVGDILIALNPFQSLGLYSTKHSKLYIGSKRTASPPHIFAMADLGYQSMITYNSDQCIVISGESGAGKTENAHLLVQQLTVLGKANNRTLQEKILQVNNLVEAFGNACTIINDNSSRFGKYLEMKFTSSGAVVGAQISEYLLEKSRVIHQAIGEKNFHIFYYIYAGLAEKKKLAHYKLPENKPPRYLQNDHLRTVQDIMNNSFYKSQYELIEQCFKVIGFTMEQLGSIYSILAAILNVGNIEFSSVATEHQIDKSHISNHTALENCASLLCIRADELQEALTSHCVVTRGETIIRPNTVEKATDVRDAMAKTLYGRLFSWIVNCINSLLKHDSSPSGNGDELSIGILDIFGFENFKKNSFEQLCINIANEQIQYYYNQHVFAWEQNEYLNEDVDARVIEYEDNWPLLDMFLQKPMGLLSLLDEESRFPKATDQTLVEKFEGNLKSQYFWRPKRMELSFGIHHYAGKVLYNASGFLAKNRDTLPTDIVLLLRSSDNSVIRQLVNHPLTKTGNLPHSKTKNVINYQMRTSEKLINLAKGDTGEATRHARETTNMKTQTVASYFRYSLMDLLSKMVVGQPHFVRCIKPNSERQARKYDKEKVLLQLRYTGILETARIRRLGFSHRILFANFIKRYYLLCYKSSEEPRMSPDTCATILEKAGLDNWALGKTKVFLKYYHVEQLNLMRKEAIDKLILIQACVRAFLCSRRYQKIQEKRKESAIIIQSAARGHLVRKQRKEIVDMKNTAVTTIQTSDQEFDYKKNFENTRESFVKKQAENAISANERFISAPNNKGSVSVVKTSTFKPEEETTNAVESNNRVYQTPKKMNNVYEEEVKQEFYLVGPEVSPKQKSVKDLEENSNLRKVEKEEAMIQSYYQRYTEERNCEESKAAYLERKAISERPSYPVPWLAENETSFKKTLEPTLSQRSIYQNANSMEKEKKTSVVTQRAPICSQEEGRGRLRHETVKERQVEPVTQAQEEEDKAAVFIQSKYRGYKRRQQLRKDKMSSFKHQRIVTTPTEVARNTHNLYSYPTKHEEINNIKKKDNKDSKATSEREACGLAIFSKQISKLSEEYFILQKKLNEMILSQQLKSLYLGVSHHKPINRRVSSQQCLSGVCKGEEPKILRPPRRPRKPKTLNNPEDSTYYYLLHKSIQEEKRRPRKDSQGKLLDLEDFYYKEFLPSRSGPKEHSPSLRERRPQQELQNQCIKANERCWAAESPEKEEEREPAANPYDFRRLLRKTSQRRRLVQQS

COCC(=O)NC/C=C/c1ccc2ncnc(Nc3ccc(Oc4ccc(C)nc4)c(C)c3)c2c1 [CP-724714]
> 10 µM: [1] | [2] | [3] | [4] | [5] | [6] | [7]

CCOc1cc2ncc(C#N)c(Nc3ccc(F)c(Cl)c3)c2cc1NC(=O)/C=C/CN(C)C [PELITINIB]
> 10 µM: [2] | [3] | [6]
7.2 µM: [5]

NC(=O)c1ccc(-c2nc(-c3ccc4c(c3)OCO4)c(-c3ccccn3)[nH]2)cc1 [SB-431542]
> 10 µM: [1] | [2] | [3] | [4] | [5] | [6] | [7]

Nc1nc(Nc2ccc(S(N)(=O)=O)cc2)nn1C(=O)c1c(F)cccc1F [JNJ-7706621]
1.4 µM: [5]
> 10 µM: [2] | [4] | [6]

Oc1ccc(-c2nc(-c3ccncc3)c(-c3ccc(F)cc3)[nH]2)cc1 [SB-202190]
0.79 µM: [4]
> 10 µM: [1] | [2] | [3] | [5] | [6] | [7]
